Data on 29 compounds can be found in US20150352108A1, “AMINO-PYRIMIDINE COMPOUNDS AS INHIBITORS OF TBK1 AND/OR IKK EPSILON” (Alzheimer's Institute of America, priority 2009, published 2015).

The test addresses T1, IKKε (Homo sapiens, UniProt Q14164).
T1 construct: His-tag; made in house; host or cells: Sf9 insect cells
T1 sequence (Q14164 1-716): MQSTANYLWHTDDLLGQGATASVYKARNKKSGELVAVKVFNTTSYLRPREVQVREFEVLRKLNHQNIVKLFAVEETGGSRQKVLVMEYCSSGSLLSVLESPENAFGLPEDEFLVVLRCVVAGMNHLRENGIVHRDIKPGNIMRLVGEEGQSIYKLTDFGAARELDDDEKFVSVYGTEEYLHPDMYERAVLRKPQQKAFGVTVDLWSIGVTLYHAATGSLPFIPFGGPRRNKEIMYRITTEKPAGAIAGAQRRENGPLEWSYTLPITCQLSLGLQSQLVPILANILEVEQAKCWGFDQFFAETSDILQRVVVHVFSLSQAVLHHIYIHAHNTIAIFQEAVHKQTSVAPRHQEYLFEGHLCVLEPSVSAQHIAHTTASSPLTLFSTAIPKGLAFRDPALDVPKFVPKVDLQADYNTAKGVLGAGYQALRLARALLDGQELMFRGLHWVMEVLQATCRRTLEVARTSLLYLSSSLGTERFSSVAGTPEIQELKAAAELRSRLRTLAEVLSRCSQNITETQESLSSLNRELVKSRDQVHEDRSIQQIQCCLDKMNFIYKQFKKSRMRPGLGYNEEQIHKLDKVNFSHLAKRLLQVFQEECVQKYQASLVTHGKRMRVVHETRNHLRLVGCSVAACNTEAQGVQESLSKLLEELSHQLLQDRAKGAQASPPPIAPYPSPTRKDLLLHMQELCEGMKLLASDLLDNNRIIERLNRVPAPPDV
Description: In-vitro IKKε kinase assay ([γ33]ATP filter-plate). The format is biochemical. The following applies: text bins; read-out: IC50 for inhibition of the kinase activity of IKKε. The gist of the method: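 His-tagged IKKε and TBK1 from Sf9 cells were assayed with myelin basic protein or casein and [γ33]ATP at 2×Km ATP (32 μM for IKKε, 60 μM for TBK1). Enzyme was 0.1 or 0.015 μg/ml for IKKε and 0.1 or 0.02 μg/ml for TBK1 (normal/sensitized). Reactions ran 30-45 min, were filter-captured, scintillation-counted, and normalized to DMSO after background subtraction.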

pIC50: −log10 of the molar value.

As to `C[C@H](O)C(=O)N1CCC(Oc2ccc(-c3ccnc(Nc4ccc(N5CCOCC5)cc4)n3)cc2C#N)C1` (stereo partly drawn) [Example 192, 2-({1-[(2S)-2-hydroxypropanoyl]pyrrolidin-3-yl}oxy)-5-(2-{[4-(morpholin-4-yl)phenyl]amino}pyrimidin-4-yl)benzonitrile], the negative-log IC50 (pIC50) was 7.30 to 8.30.

Consider `CC(C)N1CCC(Oc2ccc(-c3ccnc(Nc4ccc(N5CCOCC5)cc4)n3)cc2C#N)CC1` [Example 227, 5-(2-{[4-(Morpholin-4-yl)phenyl]amino}pyrimidin-4-yl)-2-{[1-(propan-2-yl)piperidin-4-yl]oxy}benzonitrile], for which the pIC50 is 6.30 to 7.30.

With `COc1ccc(-c2ccnc(Nc3ccc(S(N)(=O)=O)cc3)n2)cc1C#N` [compound 323, 4-{[4-(3-Cyano-4-methoxyphenyl)pyrimidin-2-yl]amino} benzenesulfonamide], the pIC50 is 7.30 to 8.30. The result for `COc1cc(Nc2nccc(-c3ccc(OC)c(C#N)c3)n2)cc(C(=O)N2CC[C@@H](O)C2)c1` [compound 382, 5-{2-[(3-{[(3R)-3-Hydroxypyrrolidin-1-yl]carbonyl}-5-methoxyphenyl)amino]pyrimidin-4-yl}-2-methoxybenzonitrile] reads 6.30 to 7.30; that for `N#Cc1cc(-c2ccnc(Nc3cccc(-c4ccncc4)c3)n2)ccc1OC1CCOCC1` [compound 573, 5-(2-{[3-(Pyridin-4-yl)phenyl]amino}pyrimidin-4-yl)-2-(tetrahydro-2H-pyran-4-yloxy)benzonitrile], more than 8.30; that for `COc1ccc(-c2ccnc(Nc3cc(CNCCO)c(OC)c(OC)c3)n2)cc1C#N` [Example 173, 5-{2-[(3-{[(2-Hydroxyethyl)amino]methyl}-4,5-dimethoxyphenyl)amino]pyrimidin-4-yl}-2-methoxybenzonitrile], 7.30 to 8.30.

On to `COC1CN(C(C)c2ccc(Nc3nccc(-c4ccc(O[C@@H]5CCN(C(=O)CO)C5)c(C#N)c4)n3)cc2)C1` (some centres unmarked) [compound 602], for which the negative logarithm of the IC50 (pIC50) is 7.30 to 8.30. With `Cn1cc(-c2ccc(Nc3nccc(-c4ccc(OC5CCOCC5)c(C#N)c4)n3)cc2)cn1` [compound 584, 5-(2-{[4-(1-Methyl-1H-pyrazol-4-yl)phenyl]amino}pyrimidin-4-yl)-2-(tetrahydro-2H-pyran-4-yloxy)benzonitrile] the figure was more than 8.30; with `CC(C)C(=O)NCCOc1ccc(-c2ccnc(Nc3ccc(N4CCOCC4)cc3)n2)cc1C#N` [Example 153, N-{2-[2-cyano-4-(2-{[4-(morpholin-4-yl)phenyl]amino}pyrimidin-4-yl)phenoxy]ethyl}-2-methylpropanamide], 6.30 to 7.30.

Turning to `CCN(CC)CCc1ccc(Nc2nccc(-c3ccc(NC(=O)C(C)C)c(C#N)c3)n2)cc1` [compound 454, N-{2-cyano-4-[2-({4-[2-(diethylamino)ethyl]phenyl}amino)pyrimidin-4-yl]phenyl}-2-methylpropanamide], the pIC50 was 7.30 to 8.30. The result for `C[C@@H](O)C(=O)N1CCC(Oc2ccc(-c3ccnc(Nc4ccc(N5CCOCC5)cc4)n3)cc2C#N)C1` (stereo partly drawn) [Example 142, 2-({1-[(2R)-2-hydroxypropanoyl]pyrrolidin-3-yl}oxy)-5-(2-{[4-(morpholin-4-yl)phenyl]amino}pyrimidin-4-yl)benzonitrile] reads 6.30 to 7.30; that for `COc1cc(Nc2nccc(-c3ccc(OC4CCN(C(=O)CO)C4)c(C#N)c3)n2)ccc1N1CCC(N2CCN(C)CC2)CC1` (centres unmarked) [compound 513, 2-{[1-(hydroxyacetyl)pyrrolidin-3-yl]oxy}-5-[2-({3-methoxy-4-[4-(4-methylpiperazin-1-yl)piperidin-1-yl]phenyl}amino)pyrimidin-4-yl]benzonitrile], 6.30 to 7.30. With `CC(C)C[C@H](O)C(=O)N1CCC(Oc2ccc(-c3ccnc(Nc4ccc(N5CCOCC5)cc4)n3)cc2C#N)CC1` [Example 229, 2-({1-[(2S)-2-hydroxy-4-methylpentanoyl]piperidin-4-yl}oxy)-5-(2-{[4-(morpholin-4-yl)phenyl]amino}pyrimidin-4-yl)benzonitrile] the figure was 7.30 to 8.30; with `N#Cc1cc(-c2ccnc(Nc3ccc(N4CCOCC4)cc3)n2)ccc1NC(=O)NC1CCOCC1` [Example 92, 1-[2-cyano-4-(2-{[4-(morpholin-4-yl)phenyl]amino}pyrimidin-4-yl)phenyl]-3-(tetrahydro-2H-pyran-4-yl)urea], 7.30 to 8.30.

As for `CC(C)C(=O)Nc1ccc(-c2ccnc(Nc3ccc(CCO)cc3)n2)cc1C#N` [compound 464, N-[2-cyano-4-(2-{[4-(2-hydroxyethyl)phenyl]amino}pyrimidin-4-yl)phenyl]-2-methylpropanamide], the pIC50 was 7.30 to 8.30. The result for `CC(=O)Nc1cccc(Nc2nccc(-c3cccc(C#N)c3)n2)c1` [Example 277, N-(3-{[4-(3-Cyanophenyl)pyrimidin-2-yl]amino}phenyl) acetamide] reads 6.30 to 7.30. The result for `CC(C)C(=O)Nc1ccc(-c2ccnc(Nc3ccc(C(C)C(=O)N4CCOCC4)cc3)n2)cc1C#N` (centres unmarked) [compound 453, N-{2-cyano-4-[2-({4-[1-(morpholin-4-yl)-1-oxopropoan-2-yl]phenyl}amino)pyrimidin-4-yl]phenyl}-2-methylpropanamide] reads 7.30 to 8.30.

Consider `COc1cc(NC(=O)NCCN(C)C)cc(Nc2nccc(-c3ccc(OC)c(C#N)c3)n2)c1` [compound 360, 1-(3-{[4-(3-Cyano-4-methoxyphenyl)pyrimidin-2-yl]amino}-5-methoxyphenyl)-3-[2-(dimethylamino)ethyl]urea], for which the pIC50 is 6.30 to 7.30. The result for `COc1ccc(COc2ccc(-c3ccnc(Nc4ccc(N5CCOCC5)cc4)n3)cc2C#N)cc1` [Example 40, 2-[(4-Methoxybenzyl)oxy]-5-(2-{[4-(morpholin-4-yl)phenyl]amino}pyrimidin-4-yl)benzonitrile] reads 6.30 to 7.30; that for `COc1ccc(Nc2nccc(-c3cc(C#N)cc(OCc4ccccc4)c3)n2)cc1OC` [Example 145, 3-(Benzyloxy)-5-{2-[(3,4-dimethoxyphenyl)amino]pyrimidin-4-yl}benzonitrile], 6.30 to 7.30; that for `N#Cc1cc(-c2ccnc(Nc3ccc(-c4ccncc4)cc3)n2)ccc1OC1CCOCC1` [compound 610, 5-(2-{[4-(Pyridin-4-yl)phenyl]amino}pyrimidin-4-yl)-2-(tetrahydro-2H-pyran-4-yloxy)benzonitrile], more than 8.30.

Take `N#Cc1cc(-c2ccnc(Nc3ccc(N4CCOCC4)c(C(F)(F)F)c3)n2)ccc1OC1CCOCC1` [Example 120, 5-(2-{[4-(morpholin-4-yl)-3-(trifluoromethyl)phenyl]amino}pyrimidin-4-yl)-2-(tetrahydro-2H-pyran-4-yloxy)benzonitrile]: the pIC50 is 7.30 to 8.30. Take `N#Cc1cc(-c2ccnc(Nc3ccc(N4CCOCC4)cc3)n2)ccc1OC1CCN(CC(=O)N2CCOCC2)CC1` [Example 234, 2-({1-[2-(morpholin-4-yl)-2-oxoethyl]piperidin-4-yl}oxy)-5-(2-{[4-(morpholin-4-yl)phenyl]amino}pyrimidin-4-yl)benzonitrile]: the negative-log IC50 (pIC50) was 6.30 to 7.30. The result for `COc1cc(Nc2nccc(-c3ccc(OC4CCN(C(=O)CO)C4)c(C#N)c3)n2)ccc1OCCOCCN` (centres unmarked) [Example 199, 5-[2-({4-[2-(2-aminoethoxy)ethoxy]-3-methoxyphenyl}amino)pyrimidin-4-yl]-2-{[1-(hydroxyacetyl)pyrrolidin-3-yl]oxy}benzonitrile] reads 7.30 to 8.30.

With `N#Cc1cc(-c2ccnc(Nc3cccc(NC(=O)NC4CCC(O)CC4)c3)n2)ccc1OC1CCOCC1` (centres unmarked) [compound 589, 1-[3-({4-[3-Cyano-4-(tetrahydro-2H-pyran-4-yloxy)phenyl]pyrimidin-2-yl}amino)phenyl]-3-(4-hydroxycyclohexyl) urea], the pIC50 was more than 8.30. With `N#Cc1cc(-c2ccnc(Nc3ccc(N4CCOCC4)cc3)n2)ccc1OC1CN(C=O)C1` [Example 101, 2-[(1-formylazetidin-3-yl)oxy]-5-(2-{[4-(morpholin-4-yl)phenyl]amino}pyrimidin-4-yl)benzonitrile] the figure was 6.30 to 7.30; with `N#Cc1cc(-c2ccnc(Nc3cccc(NC(=O)NCCO)c3)n2)ccc1OC1CCOCC1` [compound 622, 1-[3-({4-[3-Cyano-4-(tetrahydro-2H-pyran-4-yloxy)phenyl]pyrimidin-2-yl}amino)phenyl]-3-(2-hydroxyethyl)urea], more than 8.30.

In the case of `CC(C)(C)C(=O)Nc1ccc(-c2ccnc(Nc3ccc(N4CCOCC4)cc3)n2)cc1C#N` [Example 196, N-[2-cyano-4-(2-{[4-(morpholin-4-yl)phenyl]amino}pyrimidin-4-yl)phenyl]-2,2-dimethylpropanamide], the pIC50 is 7.30 to 8.30. The result for `COc1ccc(-c2ccnc(Nc3ccccc3)n2)cc1C#N` [compound 299, 2-Methoxy-5-[2-(phenylamino)pyrimidin-4-yl]benzonitrile] reads 7.30 to 8.30.
